pIC50: −log10 of the molar value.
How the values were obtained:
Type in all cases: cell-based
[1] = target: human OTR (Homo sapiens, UniProt P30559); experiment: Inhibition activity on human OTR (Fluo-4 calcium assay, HEK293/human OTR stably transfected cells); details: oxytocin 3 nM
Protocol: The inhibition effect of the compounds of the present invention on the activity of human OTR protein expressed in HEK293/human OTR stably transfected cells was determined by the following experimental method:
The pcDNA3.1-hOTR plasmid was transferred into HEK293 cells with the Lipofectamine® 3000 transfection reagent; G418 was added on the next day to screen, and monoclonal cell lines were selected.
(§1) HEK293/human OTR stably transfected cells were inoculated in a 96-well plate with an inoculation density of 25,000 cells/well one day in advance. On the next day, a loading buffer containing Fluo-4 dye was formulated using the reagents in the Fluo-4 NW calcium assay kit, and the culture medium was then removed; 100 μl of the loading buffer containing Fluo-4 dye were added to each well, and the plate was incubated at 37° C. for 30 minutes. After that, the plate was moved to room temperature and equilibrated for 10 minutes. The compounds were formulated at 10^6, 10^5, 10^4, 10^3, 10^2 and 10^1 nM. 1 μl of the compounds in each concentration was added to each well, and the plate was incubated at room temperature for 10 minutes. 50 μl of oxytocin polypeptide (3 nM) were automatically added by the machine, and the values were immediately detected at 494/516 nM by the flexstation 3 microplate reader. IC50 values of the compounds were calculated by Graphpad prism software using fluorescence signals corresponding to different concentrations.
The inhibition activity of the compounds of the present invention on human OTR was determined by the above test, and the obtained IC50 values are shown in Table 1.

[2] = target: human V1aR (Homo sapiens (Human), UniProt P37288); experiment: Inhibition activity on human V1aR (Fluo-4 calcium assay, HEK293/human V1aR stably transfected cells); details: vasopressin 3 nM
Protocol: The inhibition effect of the compounds of the present invention on the activity of human V1 aR protein expressed in HEK293/human V1aR stably transfected cells was determined by the following experimental method:
The pcDNA3.1-V1aR plasmid was transferred into HEK293 cells with the Lipofectamine® 3000 transfection reagent; G418 was added on the next day to screen, and monoclonal cell lines were selected.
as §1, with “V1aR” for “OTR”, “vasopressin” for “oxytocin”
The inhibition activity of the compounds of the present invention on human V1aR was determined by the above test, and the obtained IC50 values are shown in Table 2.

[3] = target: human V1bR (Homo sapiens, UniProt P47901); experiment: Inhibition activity on human V1bR (Fluo-4 calcium assay, HEK293/human V1bR pool cells); details: vasopressin 3 nM
Protocol: The inhibition effect of the compounds of the present invention on the activity of human V1bR protein expressed in HEK293/human V1bR cells was determined by the following experimental method:
The pcDNA3.1-V1bR plasmid was transferred into HEK293 cells with the Lipofectamine® 3000 transfection reagent; G418 was added on the next day, and the HEK293/human V1bR pool cell lines were obtained.
as §1, with “HEK293/human V1bR pool” for “HEK293/human OTR stably transfected”, “formulated into” for “formulated at”, “of vasopressin” for “of oxytocin”
The inhibition activity of the compounds of the present invention on human V1bR was determined by the above test, and the obtained IC50 values are shown in Table 3.

[4] = target: human V2R (Homo sapiens (Human), UniProt P30518); experiment: Inhibition activity on human V2R (cAMP HTRF assay, HEK293/human V2R pool cells); details: vasopressin
Protocol: The inhibition effect of the compounds of the present invention on the activity of human V2R protein expressed in HEK293/human V2R cells was determined by the following experimental method:
The pcDNA3.1-V2R plasmid was transferred into HEK293 cells with the Lipofectamine® 3000 transfection reagent; G418 was added on the next day, and the HEK293/human V2R pool cell lines were obtained.
HEK293/human V2R pool cells were dissociated with the cell dissociation solution (enzyme-free), thereby dissociating the cells from the cell culture dish into individual cells. Then the cell solution was blown well, and centrifuged to remove the supernatant. The cells were resuspended in the test buffer 1 (1×HBSS+20 mM HEPES+0.1% BSA) and counted. The cell density was adjusted to 1250 cells/5 μl, i.e., 2.5*10^5/ml.
The compounds were formulated into a series of concentrations of 20 mM, 6.67 mM, 2.22 mM, 0.74 mM, 0.25 mM, 0.08 mM, 27.4 μM, 9.14 μM, 3.05 μM, 1.02 μM, 0.34 μM and 0 μM (DMSO) with pure DMSO. The compounds were then diluted into a 4-fold working concentration solution with the test buffer 2 (test buffer 1+1 mM IBMX).
Agonist: 460 μM vasopressin was used as the mother liquor, which was formulated at 2 μM with DMSO, and then diluted to 0.5 nM with the test buffer 2.
Standards: The first point was 20 μl of a stock solution (2848 nM), which was diluted successively to a total of eleven concentrations in a 4-fold concentration gradient with the test buffer 1 from the second point.
1. The well-mixed cells were added to a 384-well plate (5 μl/well) without changing the tip.
2. The test compounds and positive compound formulated were added (2.5 μl/well), and the tips were changed.
3. The plate was centrifuged at 1000 rpm for 1 min, shaken for 30 sec to mix well, and incubated at room temperature for 30 min.
4. The standard curve wells were added with the test buffer 2 (5 μl/well).
5. The formulated agonist was added (2.5 μl/well), and the tips were changed; the plate was centrifuged at 1000 rpm for 1 min, shaken for 30 sec to mix well, and incubated at room temperature for 30 min.
6. cAMP-d2 (a component in the cAMP dynamic 2 kit) and Anti-cAMP-Eu-Cryptate (a component in the cAMP dynamic 2 kit) were formulated in the dark, which were then mixed well with cAMP lysate (a component in the cAMP dynamic 2 kit) in a ratio of 1:4. Each well was added with the formulated cAMP-d2 solution (5 μl/well), followed by addition of Anti-cAMP-Eu-Cryptate (5 μl/well). The plate was shaken for 30 sec to mix well, and incubated in the dark at room temperature for 1 h.
The HTRF Signals were Read by the PheraStar Multi-Function Microplate Reader.
The data in this test was processed using the data processing software Graphpad Prism.
The inhibition activity of the compounds of the present invention on human V2R was determined by the above test, and the IC50 values obtained are shown in Table 4.

human V1aR, sequence (P37288 whole entry): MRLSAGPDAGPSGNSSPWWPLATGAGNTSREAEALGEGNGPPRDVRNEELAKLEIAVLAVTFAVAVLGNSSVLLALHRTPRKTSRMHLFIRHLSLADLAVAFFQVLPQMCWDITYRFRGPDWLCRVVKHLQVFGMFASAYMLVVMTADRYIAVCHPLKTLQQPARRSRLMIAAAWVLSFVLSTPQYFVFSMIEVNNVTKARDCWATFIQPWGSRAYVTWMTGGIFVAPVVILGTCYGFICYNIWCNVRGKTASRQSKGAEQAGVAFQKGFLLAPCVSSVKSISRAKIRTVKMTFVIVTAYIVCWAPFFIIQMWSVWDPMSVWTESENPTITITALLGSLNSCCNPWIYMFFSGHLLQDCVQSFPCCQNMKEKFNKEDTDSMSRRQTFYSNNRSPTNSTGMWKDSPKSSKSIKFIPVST
human V2R, sequence (P30518 whole entry): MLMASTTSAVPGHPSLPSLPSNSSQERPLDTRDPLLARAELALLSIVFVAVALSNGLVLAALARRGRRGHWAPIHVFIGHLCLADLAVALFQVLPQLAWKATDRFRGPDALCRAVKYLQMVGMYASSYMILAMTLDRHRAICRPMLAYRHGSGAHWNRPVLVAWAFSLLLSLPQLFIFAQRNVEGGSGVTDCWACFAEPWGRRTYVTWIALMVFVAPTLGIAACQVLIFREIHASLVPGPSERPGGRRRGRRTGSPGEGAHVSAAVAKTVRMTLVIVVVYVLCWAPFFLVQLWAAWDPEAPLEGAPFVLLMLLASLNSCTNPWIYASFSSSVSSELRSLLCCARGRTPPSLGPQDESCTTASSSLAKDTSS

pIC50 [1] | pIC50 [2] | pIC50 [3] | pIC50 [4] | SMILES
7.19 | 5.21 | 4.02 | 4.92 | COc1ccc(-n2c(C)nnc2N2CC(N3CCCc4cc(F)ccc43)C2)cn1 [Example 29, 6-Fluoro-1-(1-(4-(6-methoxypyridin-3-yl)-5-methyl-4H-1,2,4-triazol-3-yl)azetidin-3-yl)-1,2,3,4-tetrahydroquinoline]
8.40 | 5.07 | 4.68 | 5.17 | COCc1nnc(N2CC(N3CCCc4cc(F)ccc43)C2)n1-c1ccc(OC)nc1 [Example 30, 6-Fluoro-1-(1-(5-(methoxymethyl)-4-(6-methoxypyridin-3-yl)-4H-1,2,4-triazol-3-yl)azetidin-3-yl)-1,2,3,4-tetrahydroquinoline]
7.00 | 4.97 | 4.36 | 4.17 | COCc1nnc(N2CC(N3CCOc4cc(F)ccc43)C2)n1-c1ccc(OC)nc1 [Example 24, 7-Fluoro-4-(1-(5-(methoxymethyl)-4-(6-methoxypyridin-3-yl)-4H-1,2,4-triazol-3-yl)azetidin-3-yl)-3,4-dihydro-2H-benzo[b][1,4]oxazine]

Further lines, the molecule ahead of its results:

SMILES | pIC50 [1] | pIC50 [2] | pIC50 [3] | pIC50 [4]
COCc1nnc(N2CC(c3cn(C)c4cc(F)ccc34)C2)n1-c1ccc(OC)nc1 [Example 14, 6-Fluoro-3-(1-(5-(methoxymethyl)-4-(6-methoxypyridin-3-yl)-4H-1,2,4-triazol-3-yl)azetidin-3-yl)-1-methyl-1H-indole] | 6.89 | 4.96 | 4.59 | 4.93
COCc1nnc(N2CC(n3cc(Cl)c4cc(F)ccc43)C2)n1-c1ccc(OC)nc1 [Example 10, 3-Chloro-5-fluoro-1-(1-(5-(methoxymethyl)-4-(6-methoxypyridin-3-yl)-4H-1,2,4-triazol-3-yl)azetidin-3-yl)-1H-indole] | 7.04 | 5.24 | 4.91 | 4.68
COCc1nnc(N2CC(C3CCOc4cc(F)ccc43)C2)n1-c1ccc(OC)nc1 (stereo not shown) [Example 21, 5-(3-(3-(7-Fluorobenzodihydropyran-4-yl)azetidin-1-yl)-5-(methoxymethyl)-4H-1,2,4-triazol-4-yl)-2-methoxypyridine] | 7.60 | 5.57 | 4.41 | 4.76
COCc1nnc(N2CC(c3csc4cc(F)ccc34)C2)n1-c1ccc(OC)nc1 [Example 9, 5-(3-(3-(6-Fluorobenzo[b]thiophen-3-yl)azetidin-1-yl)-5-(methoxymethyl)-4H-1,2,4-triazol-4-yl)-2-methoxypyridine] | 7.40 | 5.92 | 4.37 | 4.90
